Source: ChEMBL document CHEMBL1146322, “Synthesis and biological evaluation of some 5-ethoxycarbonyl-6-isopropylamino-4-(substitutedphenyl)aminopyrimidines as potent analgesic and anti-inflammatory agents” (Bioorg Med Chem Lett, 2007)

Experiments:
Mus musculus = assay: Analgesic activity in Albino mouse assessed as inhibition of acetic acid-induced writhing at 50 mg/kg, po; format: functional
Rattus norvegicus [1] = assay: Antiinflammatory activity in rat at 50 mg/kg, po; format: functional
Rattus norvegicus [2] = species on record: Rattus norvegicus; assay: Toxicity in rat assessed as ulcerogenic potential; format: organism-based; details: in vivo

SMILES: CCOC(=O)c1c(NC(C)C)ncnc1Oc1ccccc1
- inhibition in vivo at 50 mg/kg (Mus musculus): 70.2%
- inhibition in vivo at 50 mg/kg (Rattus norvegicus [1]): 55.5%

SMILES: O=C([O-])Cc1ccccc1Nc1c(Cl)cccc1Cl.[Na+] [DICLOFENAC SODIUM]
- inhibition in vivo at 50 mg/kg (Mus musculus): 78%
- UI (Rattus norvegicus [2]): 0.805

SMILES: CCOC(=O)c1c(Nc2ccc(Cl)cc2)ncnc1NC(C)C
- inhibition in vivo at 50 mg/kg (Mus musculus): 70.2%
- inhibition in vivo at 50 mg/kg (Rattus norvegicus [1]): 30.9%

SMILES: CCOC(=O)c1c(Nc2ccc([N+](=O)[O-])cc2)ncnc1NC(C)C
- inhibition in vivo at 50 mg/kg (Mus musculus): 77.4%
- inhibition in vivo at 50 mg/kg (Rattus norvegicus [1]): 84.6%

SMILES: Cc1ccc(-c2cc(C(F)(F)F)nn2-c2ccc(S(N)(=O)=O)cc2)cc1 [CELECOXIB]
- inhibition in vivo at 50 mg/kg (Rattus norvegicus [1]): 82.1%
- UI (Rattus norvegicus [2]): 0.104

SMILES: CCOC(=O)c1c(Nc2ccc(C)cc2)ncnc1NC(C)C
- inhibition in vivo at 50 mg/kg (Mus musculus): 72%
- inhibition in vivo at 50 mg/kg (Rattus norvegicus [1]): 89.7%
- UI (Rattus norvegicus [2]): 0.29

SMILES: CCOC(=O)c1c(Nc2ccc(S(N)(=O)=O)cc2)ncnc1NC(C)C
- inhibition in vivo at 50 mg/kg (Mus musculus): 72.6%
- inhibition in vivo at 50 mg/kg (Rattus norvegicus [1]): 87.7%
- UI (Rattus norvegicus [2]): 0.241

SMILES: CCOC(=O)c1c(Nc2ccc(OC)cc2)ncnc1NC(C)C
- inhibition in vivo at 50 mg/kg (Mus musculus): 85.1%
- inhibition in vivo at 50 mg/kg (Rattus norvegicus [1]): 62.7%
